Assay results taken from ChEMBL document CHEMBL3886982, “Substituted bicyclic dihydropyrimidinones and their use as inhibitors of neutrophil elastase activity” (2016).

Target: T1, Neutrophil elastase (Homo sapiens, UniProt P08246)
T1 sequence (P08246 whole entry): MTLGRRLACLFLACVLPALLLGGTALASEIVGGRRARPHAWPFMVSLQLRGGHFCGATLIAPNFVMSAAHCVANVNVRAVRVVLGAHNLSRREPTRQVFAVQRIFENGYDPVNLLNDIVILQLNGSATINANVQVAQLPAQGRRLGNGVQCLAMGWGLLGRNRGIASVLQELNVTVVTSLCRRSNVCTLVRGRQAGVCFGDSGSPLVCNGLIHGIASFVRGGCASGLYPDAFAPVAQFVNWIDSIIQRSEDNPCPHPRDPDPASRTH
Assay: Human Neutrophil Elastase Assay: The following buffers were used: Compound buffer: 100 mM Tris, 500 mM NaCl, adjusted to pH 7.5; Assay buffer: 100 mM Tris, 500 mM NaCl, adjusted to pH 7.5, containing 0.01% BSA.Assay conditions: Test compounds were prediluted in DMSO and subsequently in compound buffer (5% DMSO final). 5 μL of these compound dilutions were mixed with 10 μl Neutrophil elastase …

IC50: 7.3 nM
SMILES: CN1C(=O)N(c2cccc(C(F)(F)F)c2)C2=C(C(=O)CC2)C1c1ccc(C#N)cc1-c1ccnn1C (stereo unspecified)
